Measured values: the NIST ThermoML archive (doi:10.1021/je049788h)

Details: 101.3 kPa, Liquid; for viscosity: Capillary tube (Ostwald / Ubbelohde) method; for mass density: Vibrating tube method

COCCOCCOCCOCCOC [2,5,8,11,14-pentaoxapentadecane]
Details	mass density [kg/m3]	viscosity [mPa·s]
298.15 K	1006.65	3.38
313.15 K	993.28	2.42
323.15 K	984.05	2.004
333.15 K	974.8	1.69
343.15 K	965.55	1.42
